# Measured values taken from ChEMBL document CHEMBL1201862, “PubChem BioAssay data set” (2004).
#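 Results reflect a 48-hour exposure of cells in 96-well plates to compound at five concentrations. GI50 = concentration required for 50% inhibition of growth.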 Activity calls are given as the source filed them. No stated cut-off is given here; in the data, active = GI50 up to about 1.1 µM and inactive = higher.
# Tests used:
# Assay in all cases: inhibition of tumour cell growth, NCI panel, 48 h
# M19-MEL = system: M19-MEL
# BT-549 = system: BT-549
# LXFL 529 = system: LXFL 529
# RXF 631 = system: RXF 631
# KM-20L2 = system: KM-20L2
# XF498 = system: XF498
# T47D = system: T47D
# HOP-18 = system: HOP-18
# MDA-MB-231 = system: MDA-MB-231
compound,measurement,setting,value
CN(C)CC1CCCC1=O (centres undefined),GI50,M19-MEL,857 nM (active)
same,GI50,BT-549,4970 nM (inactive)
same,GI50,LXFL 529,410 nM (active)
same,GI50,RXF 631,138 nM (active)
same,GI50,KM-20L2,1670 nM (inactive)
same,GI50,XF498,687 nM (active)
same,GI50,T47D,3650 nM (inactive)
same,GI50,HOP-18,1730 nM (inactive)
same,GI50,MDA-MB-231,2640 nM (inactive)
